# Results: patent US20090318389A1, “AGONISTS OF THE SPHINGOSINE-1 PHOSPHATE RECEPTOR” (PRAECIS PHARMACEUTICALS INCORPORATED, priority 2006, published 2009)
# Legend:
# S1P-3 receptor = biological target: T1, S1P-3 receptor (Homo sapiens, UniProt Q99500); assay: [33P]sphingosine 1-phosphate binding assay, membranes of transfected HEK 293 T cells; details: 2.5 pM [33P]S1P, 60 minutes, room temperature
# T1 construct: expressed in transfected cells; host or cells: HEK 293 T cells (crude membranes)
# Description: (§1) The IC50 of a compound is determined using the [^33P]sphingosine 1-phosphate binding assay, as described in Davis, M. D. et al., Sphingosine 1-Phosphate Analogs as Receptor Antagonists. J. Biol. Chem. (2005) 280:9833-9841, the entire contents of which are incorporated herein by this reference.
# (§2) The ability of several of the compounds described herein to bind to the S1P-1 or S1P-3 receptor was tested as follows.
# (§3) For the membrane preparation, plasmid DNA was transfected into HEK 293 T cells using the FuGENE 6 transfection protocol Briefly, subconfluent monolayers of HEK 293 T cells were transfected with the DNA mixture containing FuGENE 6 (using a 1:3 ratio). The dishes containing the cells were then placed in a tissue culture incubator (5% CO2, 37° C.). The cells were harvested 48 hours after addition of the DNA by scraping in HME buffer (in mM: 20 HEPES, 5 MgCl2, 1 EDTA, pH 7.4, 1 mM PMSF) containing 10% sucrose on ice, and disrupted using aDounce homogenizer. After centrifugation at 800×g, the supernatant was diluted with HME without sucrose and centrifuged at 17,000×g for 1 hour. This crude membrane pellet was resuspended in HME with sucrose, aliquoted, and snap-frozen by immersion in liquid nitrogen. The membranes were stored at −70° C. Protein concentration was determined spectroscopically by Bradford protein assay.
# (§4) For the binding assay, [^33P]sphingosine 1-phosphate (obtained from American Radiolabeled Chemicals, Inc) was added to membranes in 200 μL in 96-well plates with assay concentrations of 2.5 pM [^33P]sphingosine 1-phosphate, 4 mg/mL BSA, 50 mM HEPES, pH 7.5, 100 mM NaCl, 5 mM MgCl2, and 5 μg of protein. Binding was performed for 60 minutes at room temperature with gentle mixing and terminated by collecting the membranes onto GF/B filter plates. After drying the filter plates for 10 minutes, 50 μL of Microscint 40 was added to each well, and filter-bound radionuclide was measured on a Packard Top Count. Nonspecific binding was defined as the amount of radioactivity remaining in the presence of excess of unlabeled S1P.
# S1P-1 receptor [1] = biological target: T2, S1P-1 receptor (Homo sapiens, UniProt P21453); assay: as above; details: for IC50: binding, 2.5 pM [33P]S1P, 60 minutes, room temperature; for IC50/IC50 (S1P-3/S1P-1): selectivity for S1P-1 over S1P-3
# T2 construct: expressed in transfected cells; host or cells: HEK 293 T cells (crude membranes)
# Description: as §1, §2, §3, §4
# S1P-1 receptor [2] = biological target: T2, S1P-1 receptor; assay: 35S-GTPγS binding assay (EC50, agonism); format: biochemical; details: 35S-GTPγS binding assay as described in WO 03/061567
# Description: The terms “agonist” or “S1P-1 receptor agonist” as used herein include the compounds described herein which bind to and/or agonize the S1P-1 receptor. The EC50 of a compound is determined using the ^35S-GTPγS binding assay, as described in WO 03/061567, the entire contents of which are incorporated herein by reference.
# T2 sequence (P21453 whole entry): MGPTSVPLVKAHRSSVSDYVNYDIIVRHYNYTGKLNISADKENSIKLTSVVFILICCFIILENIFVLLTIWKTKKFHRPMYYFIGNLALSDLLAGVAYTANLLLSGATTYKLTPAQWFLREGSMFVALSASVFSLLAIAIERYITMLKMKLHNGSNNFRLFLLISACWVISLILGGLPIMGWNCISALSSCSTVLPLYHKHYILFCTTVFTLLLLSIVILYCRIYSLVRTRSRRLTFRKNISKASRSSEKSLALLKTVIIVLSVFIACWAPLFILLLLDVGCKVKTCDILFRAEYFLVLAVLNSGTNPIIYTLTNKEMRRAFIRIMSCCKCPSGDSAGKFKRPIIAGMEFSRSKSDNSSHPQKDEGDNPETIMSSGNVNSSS
# T1 sequence (Q99500 whole entry): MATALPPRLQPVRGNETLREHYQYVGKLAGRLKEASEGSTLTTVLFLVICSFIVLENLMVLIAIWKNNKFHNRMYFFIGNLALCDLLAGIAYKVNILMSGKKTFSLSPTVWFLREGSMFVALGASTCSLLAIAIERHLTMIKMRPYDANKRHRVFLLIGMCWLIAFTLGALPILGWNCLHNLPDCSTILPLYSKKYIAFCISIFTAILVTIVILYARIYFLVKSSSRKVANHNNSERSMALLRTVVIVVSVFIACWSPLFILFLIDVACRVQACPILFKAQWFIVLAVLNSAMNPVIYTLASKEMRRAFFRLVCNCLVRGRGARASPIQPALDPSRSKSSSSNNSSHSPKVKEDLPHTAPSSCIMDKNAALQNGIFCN
IC50 (S1P-3 receptor),IC50 (S1P-1 receptor [1]),EC50 (S1P-1 receptor [2]),SMILES,IC50/IC50 (S1P-3/S1P-1) (S1P-1 receptor [1])
100 to 1000 nM,0.001 to 100 nM,,C[C@](N)(COP(=O)(O)O)c1ncc(-c2ccc(Sc3cccc(OCc4ccccc4)c3)cc2Cl)[nH]1,"+++ (great receptor selectivity (>1,000 fold))"
100 to 1000 nM,0.001 to 100 nM,,C[C@](N)(COP(=O)(O)O)c1nnc(-c2ccc(Sc3cccc(OCc4ccccc4)c3)cc2Cl)s1,"++ (good receptor selectivity (>100-1,000 fold))"
> 10000 nM,100 to 1000 nM,,C[C@](N)(COP(=O)(O)O)c1nnc(-c2ccc(Sc3cccc(O)c3)cc2Cl)s1,

# The next lines start with the compound.
SMILES,IC50 (S1P-3 receptor),IC50 (S1P-1 receptor [1]),EC50 (S1P-1 receptor [2]),IC50/IC50 (S1P-3/S1P-1) (S1P-1 receptor [1])
C[C@](N)(COP(=O)(O)O)c1ncc(-c2ccc(Sc3cccc(OCc4ccccc4)c3)c(C(F)(F)F)c2)[nH]1,1000 to 10000 nM,0.001 to 100 nM,,"+++ (great receptor selectivity (>1,000 fold))"
C[C@](N)(COP(=O)(O)O)c1nnc(-c2ccc(Sc3cccc(OCc4ccccc4)c3)c(C(F)(F)F)c2)s1,> 10000 nM,0.001 to 100 nM,,
C[C@](N)(COP(=O)(O)O)C(=O)Nc1ccc(Sc2cccc(OCc3ccccc3)c2)cc1Cl [compound 7a],,,6.9 nM,
